According to patent publication US6348309B1, “Process for inactivating viruses in blood and blood products” (priority 1989, dated 2002):

Tests used:
[1] = system: VSV; type: cell-based, vesicular stomatitis virus
[2] = system: VSV; type: cell-based, vesicular stomatitis virus; remark: listed apart in the source
[3] = system: Herpes Simplex; experiment: MB/light virus inactivation in plasma (Example 6, Table VI); type: cell-based; details: illumination 60 min; * production conditions, plastic bag 250-300 ml plasma
[4] = system: HIV-1; experiment: MB/light treatment of HIV-1 in plasma, infectivity on MT-4 cells (Example 5); type: cell-based
[5] = biological target: T1, coagulation factor VIII (Homo sapiens, UniProt P00451); experiment: Coagulation factor activity in human plasma right after MB addition (Example 9); type: biochemical; details: no light
T1 construct: Varying amounts of MB were added to human plasma (2 ml aliquots); from tissue; host or cells: human plasma
T1 sequence (P00451 20-1332 limits assumed): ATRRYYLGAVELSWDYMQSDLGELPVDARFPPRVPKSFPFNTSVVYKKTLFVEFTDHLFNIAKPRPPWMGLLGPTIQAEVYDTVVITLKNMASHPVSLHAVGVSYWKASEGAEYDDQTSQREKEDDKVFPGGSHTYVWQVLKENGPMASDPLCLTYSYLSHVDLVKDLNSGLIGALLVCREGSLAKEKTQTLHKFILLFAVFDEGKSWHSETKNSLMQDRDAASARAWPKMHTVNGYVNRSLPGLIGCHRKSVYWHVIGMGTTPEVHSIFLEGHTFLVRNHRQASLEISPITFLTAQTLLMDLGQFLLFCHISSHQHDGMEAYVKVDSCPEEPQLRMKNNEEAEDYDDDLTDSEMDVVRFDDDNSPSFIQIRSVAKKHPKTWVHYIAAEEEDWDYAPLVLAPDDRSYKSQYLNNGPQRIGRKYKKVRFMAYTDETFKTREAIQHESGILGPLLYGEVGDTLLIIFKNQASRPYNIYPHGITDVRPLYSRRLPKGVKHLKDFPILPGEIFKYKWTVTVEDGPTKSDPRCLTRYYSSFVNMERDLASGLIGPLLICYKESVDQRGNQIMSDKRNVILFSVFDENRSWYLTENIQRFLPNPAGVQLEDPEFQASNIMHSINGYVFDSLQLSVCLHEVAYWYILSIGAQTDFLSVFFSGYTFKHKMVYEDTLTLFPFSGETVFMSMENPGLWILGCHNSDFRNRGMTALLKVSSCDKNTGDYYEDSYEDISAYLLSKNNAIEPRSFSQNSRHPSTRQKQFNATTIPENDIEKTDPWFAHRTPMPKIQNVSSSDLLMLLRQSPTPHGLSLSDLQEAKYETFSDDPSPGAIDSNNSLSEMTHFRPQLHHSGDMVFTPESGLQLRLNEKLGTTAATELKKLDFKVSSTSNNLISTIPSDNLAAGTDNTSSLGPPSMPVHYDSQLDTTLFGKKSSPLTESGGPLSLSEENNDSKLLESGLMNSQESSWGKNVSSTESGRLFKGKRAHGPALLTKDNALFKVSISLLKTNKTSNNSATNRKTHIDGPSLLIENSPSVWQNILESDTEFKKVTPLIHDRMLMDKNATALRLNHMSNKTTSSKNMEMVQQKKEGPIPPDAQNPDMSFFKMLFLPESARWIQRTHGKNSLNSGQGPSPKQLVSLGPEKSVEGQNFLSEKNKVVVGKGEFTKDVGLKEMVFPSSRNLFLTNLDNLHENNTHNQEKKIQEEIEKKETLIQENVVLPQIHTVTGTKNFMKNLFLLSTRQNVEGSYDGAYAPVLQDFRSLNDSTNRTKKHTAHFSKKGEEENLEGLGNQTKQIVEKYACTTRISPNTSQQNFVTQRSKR
T1 sequence (P00451 1668-2351 limits assumed): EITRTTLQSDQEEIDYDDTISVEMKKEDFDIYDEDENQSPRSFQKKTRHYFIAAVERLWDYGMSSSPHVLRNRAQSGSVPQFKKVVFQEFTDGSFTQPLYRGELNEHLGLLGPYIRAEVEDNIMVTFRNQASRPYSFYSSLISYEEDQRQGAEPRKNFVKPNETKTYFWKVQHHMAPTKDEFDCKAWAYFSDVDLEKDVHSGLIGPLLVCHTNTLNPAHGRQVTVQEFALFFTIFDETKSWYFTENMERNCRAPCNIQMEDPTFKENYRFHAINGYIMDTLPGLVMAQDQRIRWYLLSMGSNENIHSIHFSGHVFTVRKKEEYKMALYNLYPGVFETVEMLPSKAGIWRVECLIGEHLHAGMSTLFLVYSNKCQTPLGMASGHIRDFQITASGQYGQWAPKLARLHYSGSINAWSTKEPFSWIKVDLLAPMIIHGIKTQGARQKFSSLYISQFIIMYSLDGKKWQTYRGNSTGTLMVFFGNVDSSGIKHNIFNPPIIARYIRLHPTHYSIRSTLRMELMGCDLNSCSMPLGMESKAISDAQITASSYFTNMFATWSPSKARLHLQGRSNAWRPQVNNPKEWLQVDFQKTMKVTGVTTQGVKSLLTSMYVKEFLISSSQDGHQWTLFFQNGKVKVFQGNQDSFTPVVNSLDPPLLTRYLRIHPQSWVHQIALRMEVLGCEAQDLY

[6] = system: VSV; type: cell-based, vesicular stomatitis virus; remark: listed apart in the source
[7] = biological target: T2, factor VIII (Homo sapiens, UniProt P00451); experiment: Factor VIII content of plasma after MB and adsorbing agent (Example 14); type: biochemical; details: fresh plasma + MB 10 μM, no adsorbing agent
T2 construct: MB was added to 250 ml fresh plasma; from tissue; host or cells: fresh plasma

[8] = 1 to 2 mg/kg of body weight; cited from earlier work
[9] = system: West Nile; experiment: MB/light virus inactivation in plasma (Example 6, Table VI); type: cell-based; details: illumination 60 min

## CN(C)c1ccc2nc3ccc(=[N+](C)C)cc-3sc2c1 [MB, methylene blue]
[1]
  inactivation of VSV: only partial inactivation
  time until viral infectivity almost completely reduced to the detection limit: 15 to 30 min
[2]
  reduction of infectious VSV titer: more than 6 log10
[3]
  Inactivation Rate: >5.50 * log10 TCID50
[4]; MB 1 μM, no illumination
  effect of the dye alone on the virus: not detrimental to the virus
[4]; MB 1 μM, within the first 10 minutes of light exposure
  reduction of viral infectivity: approx. 6 log10 steps
[4]; Sample A, MB 1 μM without light, 0 min
  Log10 TCID50/ml HIV-1: 6.00 Log10 TCID50/ml
[4]; Sample A, MB 1 μM without light, 2 min
  Log10 TCID50/ml HIV-1: 5.94 Log10 TCID50/ml
[4]; Sample A, MB 1 μM without light, 5 min
  Log10 TCID50/ml HIV-1: 5.94 Log10 TCID50/ml
[4]; Sample A, MB 1 μM without light, 10 min
  Log10 TCID50/ml HIV-1: 5.94 Log10 TCID50/ml
[4]; Sample A, MB 1 μM without light, 15 min
  Log10 TCID50/ml HIV-1: 6.06 Log10 TCID50/ml
[4]; Sample A, MB 1 μM without light, 30 min
  Log10 TCID50/ml HIV-1: 5.76 Log10 TCID50/ml
[4]; Sample A, MB 1 μM without light, 60 min
  Log10 TCID50/ml HIV-1: 5.70 Log10 TCID50/ml
[4]; Sample C, MB 1 μM + light 45,000 Lux, exposure 0 min
  Log10 TCID50/ml HIV-1: 5.82 Log10 TCID50/ml
[4]; Sample C, MB 1 μM + light 45,000 Lux, exposure 2 min
  Log10 TCID50/ml HIV-1: 3.37 Log10 TCID50/ml
[4]; Sample C, MB 1 μM + light 45,000 Lux, exposure 5 min
  Log10 TCID50/ml HIV-1: 1.5 Log10 TCID50/ml
[4]; Sample C, MB 1 μM + light 45,000 Lux, exposure 10 min
  Log10 TCID50/ml HIV-1: ≦0.5 Log10 TCID50/ml
[4]; Sample C, MB 1 μM + light 45,000 Lux, exposure 15 min
  Log10 TCID50/ml HIV-1: ≦0.5 Log10 TCID50/ml
[4]; Sample C, MB 1 μM + light 45,000 Lux, exposure 30 min
  Log10 TCID50/ml HIV-1: ≦0.5 Log10 TCID50/ml
[4]; Sample C, MB 1 μM + light 45,000 Lux, exposure 60 min
  Log10 TCID50/ml HIV-1: ≦0.5 Log10 TCID50/ml
[5]; Methylene Blue 1 μM
  Factor VIII: 0.41 E/ml
[5]; Methylene Blue 2.5 μM
  Factor VIII: 0.41 E/ml
[5]; Methylene Blue 5 μM
  Factor VIII: 0.38 E/ml
[5]; Methylene Blue 10 μM
  Factor VIII: 0.35 E/ml
[5]; Methylene Blue 20 μM
  Factor VIII: 0.28 E/ml
[5]
  MB concentration from which factor VIII activity is inhibited: about 10 μM
[6]
  reduction of infectious titer of VSV: more than 5 log10-steps
[7]
  Factor VIII: 0.42 U/ml
[8]
  side effects in therapeutic use: without any significant side effects
[9]
  Inactivation Rate: >6.50 log10 TCID50
